The source of these data is patent publication US20050186172A1, “Cosmetic composition capable of fighting against skin aging” (Laboratoires Clarins, a corporation of France, priority 2002, published 2005).

Structures are written as SMILES.

The subject of this experiment is glycation cross-linking between bovine albumin and glucose. Briefly: Anti-glycation activity: fluorescence of bovine albumin-glucose adduct (AGE) after incubation. The format is biochemical. The settings on record: 10 mM, 8 days 37° C. The method, then:
The effect of the extract of Diospyros kaki was studied in vitro on a model based on the measurement of the formation of the derivatives of the glycation reaction between lysine and glucose 6-phosphate. Certain of these derivatives (AGE) are fluorescent. The reaction was measured after […] of incubation.
A reference molecule was tested in parallel: aminoguanidine.
The test system is the reaction mixture containing bovine albumin ([…]) and glucose (500 mM) in a phosphate buffer (0.2 M, pH=7.4.).
The products were mixed with the test system in sterile tubes; the tubes were covered with aluminum foil (the reaction must take place shielded from light).
For the experimental conditions in which certain reagents or products are not present, the volume of the QSP tube should be completed with MilliQ water.
After having sealed the openings of the tubes with parafilm (the reaction must take place without oxygen), the different reaction media were placed in a dry oven at 37° C. for 8 days.
After 8 days of incubation, 100 μl was collected from each tube and transferred to a 96-well black plate.
The fluorescence was then read using FLUOstar (BMG) (excitation at 355 nm, emission at 460 nm). The results are expressed in arbitrary fluorescence units.
The relative fluorescence for the “product+bovine albumin” (=interference) is to be subtracted from the “product+bovine albumin+glucose” data.
After 8 days of incubation of bovine albumin with an overcharge of glucose, the formation of glycation cross-linking was seen. It was evaluated by taking advantage of the fluorescence properties of the bovine albumin-glucose adduct.

On to `N=C(N)NN` [Aminoguanidine, aminoguanidine], for which the “% inhibition of the glycation” value (BSA + glucose) stood at 100%. In addition, the Intensity of fluorescence (BSA + glucose, ex 355 nm / em 460 nm) is listed as 13,011.5 arbitrary units. For the same compound, for the setting “interference subtracted”, the “Intensity of real fluorescence” value is reported as 0 arbitrary units.
